Patent US20190192521A1, “Methods of Treating Arid1A-Mutated Cancers With HDAC6 Inhibitors and EZH2 Inhibitors” (The Wistar Institute of Anatomy and Biology, priority 2016, published 2019)
Where no end group is shown, it is not given here.

Tests used:
[1] = system: ovarian clear cell carcinoma cell lines with known ARID1A mutational status; assay: colony formation assay, panel of ovarian clear cell carcinoma cell lines with or without ARID1A mutation; assay type: cell-based, human; settings: 12 days
Experimental: After 12 days culture, integrated density of colony formed by the indicated cells was quantified using NIH Image J software, and values were normalized to vehicle control. Data represent triplicates from independent experiments. Error bars represent S.E.M. The p-value was calculated via two-tailed t-test.
Indicated ovarian clear cell carcinoma cell lines with known ARID1A mutational status were treated with the indicated concentration of HDAC6 inhibitor CAY10603 or vehicle control in a colony formation assay. After 12 days culture, integrated density of colony formed by the indicated cells was quantified using NIH Image J software, and values were normalized to vehicle control. Data represent triplicates from independent experiments. Error bars represent S.E.M.
Colony formation assays were performed as follows. Cell lines were infected with lentivirus pLKO.1-shRNAs or pLKO.1-control with puromycin selection marker. Infected cells were selected with 1 μg/mL of puromycin for 72 hours and the selected cells were seeded in 12-well or 24-well plates. Cell medium was changed every three days with appropriate drug doses for 14 days or until control wells became confluent. Colonies were washed twice with PBS and fixed with 10% methanol and 10% acetic acid in distilled water. Fixed colonies were stained with 0.005% crystal violet. Integrated density was measured using NIH ImageJ software.

[2] = system: p53 target genes (BAX, PUMA, NOXA, CDKN1A) in ARID1A-mutated TOV21G cells; assay: RNA-seq of p53 target genes; assay type: cell-based, human; settings: 312 nM
From the text: RNA was extracted and utilized for next generation sequencing (RNA-seq). Expression of p53 target genes known to regulate apoptosis such as BAX, PUMA and NOXA, and known to regulate cell cycle arrest such as CDKN1A were not altered by HDAC6 inhibition in RNA-seq analysis.

[3] = system: ARID1A-mutated TOV21G and OVISE cells; assay: apoptosis (Annexin V, cleaved caspase 3, cleaved PARP p85) in ARID1A-mutated cells; assay type: cell-based, human
Experimental: FIG. 10 illustrates the finding that HDAC6 inhibition induces apoptosis in ARID1A-inactivated cells. […] Cells were collected and stained for apoptotic markers Annexin V. Apoptotic cells were quantified. Error bars represent standard error of the mean. The p-value was calculated via a two-tailed t-test.
FIG. 11 illustrates the results of the experiments of FIG. 10, but examined for apoptotic markers cleaved caspase 3 and cleaved PARP p85 by immunoblot. GAPDH expression was used as a loading control.
Cells were collected, incubated with an Annexin V-FITC antibody and subjected to flow cytometry analysis. Annexin V-positive cells (apoptotic) were measured with FloJo software. Mean of three independent experiments with S.E.M.
FIG. 78 illustrates percent apoptosis based on Annexin V staining in ARID1A mutated TOV21G cells treated with 1.25 μM ACY1215, 20 μM pan-caspase inhibitor Q-VD-Oph, or a combination for 48 hrs.
FIG. 79 illustrates percent apoptosis based on Annexin V staining in ARID1A mutated TOV21G cells treated with 1.25 μM ACY1215 for 48 hrs with or without knockdown of caspase 3 or caspase 9.
For immunoblotting, protein was isolated as described in Bitler et al. Nat. Med. 2015, 21, 231-238. Briefly, protein was extracted with RIPA buffer (150 mM NaCl, 1% NP40, 0.5% sodium deoxycholate, 0.1% SDS, 50 mM Tris pH 8.0, and 1 mM PMSF). Protein was separated on a SDS-PAGE and transferred to PVDF membrane. For immunoblot of p53 post-translation modifications, cells were treated with a proteasome inhibitor MG132 (10 μM) to stabilize p53 protein.
Annexin V and mitochondria membrane potentials were measured as follows. Phosphatidylserine externalization was detected using an Annexin V staining kit (Life Technologies) following the manufacturer's instructions. To measure change in mitochondria membrane potential cells were treated with 200 nM of tetramethylrhodamine, ethyl ester (TMRE; Abcam) for 15 min at 37° C. Annexin V and TMRE-positive cells were detected using the LSR18 and analyzed with the FlowJo software module.

[4] = target: T1, human HDAC6 (Homo sapiens, UniProt Q9UBN7); assay: in vitro biochemical HDAC6 deacetylation assay (LC-MS)
T1 construct: made in house
T1 sequence (Q9UBN7 1-1215): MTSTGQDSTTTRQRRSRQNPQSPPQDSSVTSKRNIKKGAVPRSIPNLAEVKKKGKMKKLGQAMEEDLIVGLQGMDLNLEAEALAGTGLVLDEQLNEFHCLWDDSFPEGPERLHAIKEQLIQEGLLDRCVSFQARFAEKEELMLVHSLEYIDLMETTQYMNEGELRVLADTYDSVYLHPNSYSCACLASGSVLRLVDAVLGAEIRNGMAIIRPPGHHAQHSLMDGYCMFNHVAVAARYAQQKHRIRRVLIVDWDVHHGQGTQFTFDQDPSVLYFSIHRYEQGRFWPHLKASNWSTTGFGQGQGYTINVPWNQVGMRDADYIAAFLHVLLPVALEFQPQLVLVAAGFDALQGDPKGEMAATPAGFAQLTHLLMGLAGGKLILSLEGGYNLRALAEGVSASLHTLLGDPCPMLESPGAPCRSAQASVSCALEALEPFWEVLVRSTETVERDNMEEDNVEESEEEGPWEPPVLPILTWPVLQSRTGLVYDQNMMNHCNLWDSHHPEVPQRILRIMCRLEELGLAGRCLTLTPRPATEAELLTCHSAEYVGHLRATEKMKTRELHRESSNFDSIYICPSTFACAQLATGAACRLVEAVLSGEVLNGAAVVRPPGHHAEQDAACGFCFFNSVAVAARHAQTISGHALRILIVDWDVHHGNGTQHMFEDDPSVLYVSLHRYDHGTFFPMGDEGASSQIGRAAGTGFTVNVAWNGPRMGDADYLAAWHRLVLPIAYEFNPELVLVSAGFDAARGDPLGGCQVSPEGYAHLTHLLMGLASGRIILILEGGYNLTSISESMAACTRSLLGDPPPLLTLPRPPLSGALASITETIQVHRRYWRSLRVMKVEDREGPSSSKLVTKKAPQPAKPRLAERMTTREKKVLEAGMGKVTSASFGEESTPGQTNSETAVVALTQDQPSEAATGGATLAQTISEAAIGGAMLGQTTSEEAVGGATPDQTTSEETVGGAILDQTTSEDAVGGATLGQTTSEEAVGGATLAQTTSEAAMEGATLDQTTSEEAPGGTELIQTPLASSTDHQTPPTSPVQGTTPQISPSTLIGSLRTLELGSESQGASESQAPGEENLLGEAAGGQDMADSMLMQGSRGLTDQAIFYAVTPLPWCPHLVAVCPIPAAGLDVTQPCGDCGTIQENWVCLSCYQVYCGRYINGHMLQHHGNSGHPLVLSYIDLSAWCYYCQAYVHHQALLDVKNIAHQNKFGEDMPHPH
Experimental: Deacetylation reactions were detected by discontinuous liquid chromatography-mass spectrometry (LC-MS). […] All assays were performed in triplicates.
In vitro biochemical HDAC6 deacetylation assays were performed as follows. Activity assay with human HDAC6 was based on a discontinuous liquid chromatography-mass spectrometry (LC-MS) assay as reported in Hai and Christianson, 2016. Briefly, 0.05 μM of HDAC6 was incubated with 100 μM of substrate Ac-LHSGTAK(ac)SVT-COOH in HEPES buffer [20 mM HEPES (pH 7.5), 100 mM NaCl, 5 mM KCl, 1 mM MgCl2] for 20 min at room temperature, and the reaction was quenched by the addition of acetonitrile (equal volume to the reaction solution). […] The assay was run in the presence of 10 μM of HDAC6 specific inhibitor ACY-1215 as a negative control. All the assays were performed in triplicates. The peptide was custom synthesized by Genscript. The human HDAC6 construct was expressed and purified as described in Hai and Christianson, 2016.

Compound: CC(C)(C)OC(=O)Nc1ccc(-c2cc(C(=O)NCCCCCCC(=O)NO)no2)cc1 [CAY10603, tert-butyl 4-(3-((7-(hydroxyamino)-7-oxoheptyl)carbamoy)isoxazol-5-yl)phenylcarbamate]
- sensitivity of ARID1A-mutated cells compared with ARID1A wild-type cells [1]: more sensitive
- expression of p53 target genes (BAX, PUMA, NOXA, CDKN1A) [2]: not altered

Compound: c1cc(SSc2ccns2)sn1 [NU9056]
- effect on apoptosis induced by ACY1215 ([3]; TIP60 inhibitor with ACY1215): suppressed apoptosis
- p53K120Ac levels ([3]; TIP60 inhibitor with ACY1215): reduction of the p53K120Ac levels

Compound: CC(C)[C@H](NC(=O)c1ccc2ccccc2n1)C(=O)N[C@@H](CC(=O)O)C(=O)COc1c(F)cccc1F [Q-VD-Oph]
- effect on apoptosis induced by ACY1215 ([3]; TOV21G, 20 μM Q-VD-Oph with 1.25 μM ACY1215, 48 hrs): significantly suppressed the apoptosis

Compound: Ac-LHSGTAK(Ac)SVT
- specific activity of HDAC6 with this substrate [4]: 3.4±0.4 nmol product·nmol enzyme^−1·min^−1

Compound: Ala-Lys(Ac)-Ala-NH2
- specific activity of HDAC6 with this substrate [4]: 10.5±0.5 nmol product·nmol enzyme^−1·min^−1
